According to patent publication US9006439B2, “Camptothecin derivatives having anti-tumor activity” (priority 2011, dated 2015):
Read-outs that look alike come from different tables or passages of the source. Marks after values point to notes of the source that are not given here.

Columns and labels:
[1] = test system: U87, BX-PC3, HT-29, OV-3 and A549 cell lines; test: MTT in vitro cytotoxicity, five cell lines together (mean / overall); details: for in vitro activity / cytotoxicity (in words): MTT, A549, HT-29, OV-3, U87, BX-PC3
Experimental: (§1) In vitro cytotoxicity was measured with MTT. Cell suspension was prepared using cells in good condition and seeded at 200 μl/well on a 96 well plate before culturing for 24 hours in a temperature-controlled CO2 incubator. The test drug was added at 20 μl/well and cultured for 48 hours. MTT was added to the 96 well plate at 20 ul/well and allowed to react for 4 hours in the incubator. The supernatant was removed and DMSO was added at 20 μl/well. Cytotoxicity was determined by the absorbance measured by Enzyme-linked immunosorbent assay at a wavelength of 570 nm.

[2] = test system: BX-PC3 (pancreatic cancer) cells; test: MTT in vitro cytotoxicity, BX-PC3; assay type: cell-based, human; details: read-out: Concentration to inhibit 50% cell growth (IC50 nM ± SD), BX-PC3
Experimental: as §1

[3] = test system: OV-3 (ovarian cancer) cells; test: MTT in vitro cytotoxicity, OV-3; assay type: cell-based, human; details: read-out: Concentration to inhibit 50% cell growth (IC50 nM ± SD), OV-3
Experimental: as §1

[4] = test system: HT-29 (colon cancer) cells; test: MTT in vitro cytotoxicity, HT-29; assay type: cell-based, human; details: read-out: Concentration to inhibit 50% cell growth (IC50 nM ± SD), HT-29
Experimental: as §1

[5] = test system: MX-1 human breast cancer xenograft; test: Therapeutic effect on nude mouse with MX-1 xenograft; assay type: in vivo; details: for Maximum change in weight (%) / Tumor disappear: iv; for Tumor disappear: animals with tumor not detectable visually, observed for 60 days; for T.S. (mm3) D 16: tumor size 16 days after treatment, iv tail vein; for T.S. (mm3) D 16 / T.S. (mm3) D 0: MX-1; for T.S. (mm3) D 0: tumor size at day 0 (baseline)
Experimental: (§2) Methods: female nude mice were used for the experiments. Transplantation of tumors: Actively growing tumor tissues were cut into small pieces with sterilized scissors and each mouse was inoculated with 50 mg of the tumor tissue. Treatment began on days 6-10 after tumor transplantation when the weight of the tumor was around 300 mg. The nude mice were weighed and the tumor size was measured every other day. Transplanted tumors: human breast cancer (MX-1), human non-small cell lung cancer (A549), human ovarian carcinoma (SK-0V3), human colon carcinoma (HT29), human pancreatic cancer (BX-PC-3).
B: Tumor disappearance: tumor could not be detected visually 60 days after the experiment

U87 (glioma) cells = test: MTT in vitro cytotoxicity, U87; assay type: cell-based, human; details: read-out: Concentration to inhibit 50% cell growth (IC50 nM ± SD), U87
Experimental: as §1

[6] = test system: A549 (non-small cell lung cancer) cells; test: MTT in vitro cytotoxicity, A549; assay type: cell-based, human; details: read-out: Concentration to inhibit 50% cell growth (IC50 nM ± SD), A549
Experimental: as §1

[7] = Determination of equitoxic dose (maximum tolerated dose); assay type: in vivo, nude mice; details: q2dx4, decrease in weight of around 15%; for MTD: nude, mouse, in vivo, intravenous, read-out: Experimentally determined dosage at the same level of toxicity (maximum tolerated dose)
Experimental: (§3) CP1 had better solubility and stability than CPT2-10.
Dosing regimen: once every two days, a total of four times; route of administration: intravenous injection at the tail vein. # At 16 days after treatment. […] The doses used were those that were determined experimentally to cause the same toxicity of weight decrease by 12-15%. T.S: tumor size

[8] = test system: SK-OV3 human ovarian carcinoma xenograft; test: Therapeutic effect on nude mice with SK-OV3 xenograft; assay type: in vivo; parameters: Tumor inhibition: unit not given here; details: for Tumor inhibition: 16 days after treatment; for Tumor inhibition / Maximum change in weight (%): iv; for Tumor inhibition / T.S. (mm3) D 16 / T.S. (mm3) D 0: SK-OV3; for T.S. (mm3) D 16: tumor size 16 days after treatment, iv tail vein; for T.S. (mm3) D 0: tumor size at day 0 (baseline)
Experimental: as §2

[9] = test system: a variety of transplanted tumors; details: at maximum tolerated dose
Experimental: as §2

[10] = test system: intra-cerebrally transplanted U87 human glioma brain tumor; test: Therapeutic effect on intra-cerebrally transplanted U87 brain tumor; assay type: in vivo, mice
Description: Methods: female nude mice were used for the experiments.
Dosing regimen: once every two days, a total of four times; route of administration: intravenous injection at the tail vein. Mice died from brain tumor after inoculation with 2×10^5 cells. #: Comparing CPT1 with irinotecan and gimatecan.

[11] = Solubility and stability comparison; assay type: physicochemical
Description: as §3

[12] = read-out: Concentration to inhibit 50% cell growth, mean (average concentration), mean over U87, BX-PC3, HT-29, OV-3, A549
[13] = MX-1 nude mouse, once every two days, four times
[14] = once every two days, four times
[15] = SK-OV3 nude mice, once every two days, four times
[16] = inoculation with 2×10^5 U87 cells intra-cerebrally, iv, once every two days, four times
[17] = MTT, drug cultured 48 hours, BX-PC3
[18] = MTT, drug cultured 48 hours, OV-3
[19] = MTT, drug cultured 48 hours, HT-29
[20] = MTT, drug cultured 48 hours, U87
[21] = MTT, drug cultured 48 hours, A549

| Compound | IC50 [1, 12] [nM] | Tumor disappear [5, 14] | T.S. (mm3) D 16 [5, 14] [mm3] | T.S. (mm3) D 0 [5] [mm3] | Tumor inhibition [8, 14] | T.S. (mm3) D 16 [8, 14] [mm3] | T.S. (mm3) D 0 [8] [mm3] | in vitro activity / cytotoxicity (in words) [1] | IC50 [2, 17] [nM] | IC50 [3, 18] [nM] | IC50 [4, 19] [nM] | IC50 (U87 (glioma) cells; [20]) [nM] | IC50 [6, 21] [nM] | further results |
| --- | --- | --- | --- | --- | --- | --- | --- | --- | --- | --- | --- | --- | --- | --- |
| CC[C@@]1(O)C(=O)OCc2c1cc1n(c2=O)Cc2cc3c(CN(C)C)c(O)ccc3nc2-1 [Topotecan] | 19.7 | 2/6 | 124 ± 12 | 323 ± 47 | 18.9 | 1478 ± 226 | 223 ± 43 | – | – | – | – | – | – | IC50 ([2]; Homo sapiens, BXPC-3, 48 h): 19.1 ± 3.7 nM; IC50 ([3]; Homo sapiens, 48 h): 21.1 ± 2.6 nM; IC50 ([4]; Homo sapiens, HT-29, 48 h): 17.3 ± 4.2 nM; Maximum change in weight (%) [5, 13]: −14%; IC50 (U87 (glioma) cells; Homo sapiens, U-87 MG, 48 h): 12.5 ± 3.2 nM; IC50 ([6]; Homo sapiens, A549, 48 h): 28.5 ± 3.9 nM; MTD [7]: 12 mg/kg; Maximum change in weight (%) [8, 15]: −12% |
| CCC1(O)C(=O)OCc2c1cc1n(c2=O)Cc2cc3c(CC=NOC(C)(C)C)c(OC(=O)N4CCC(N5CCCCC5)CC4)ccc3nc2-1 (stereo not shown) [CPT1, 9-t-butyloxyethyloxime-10-[(4′-piperidinylpiperidinyl)carbonyloxy]-camptothecin] | – | 6/6 | 0 | 356 ± 51 | 80.4 | 358 ± 34 | 236 ± 34 | do not have significant activities in vitro | – | – | – | – | – | Therapeutic effect against transplanted tumors (in words) [9]: good therapeutic effect; Survival time compared with irinotecan and gimatecan ([10]; P<0.05): increased significantly; Average survival time (days) [10, 16]: 26.4 ± 1.2# days; Solubility compared with CPT2-10 [11]: better; Stability compared with CPT2-10 [11]: better; Maximum change in weight (%) ([5]; mouse, in vivo): −13%; Experimentally determined dosage at the same level of toxicity (maximum tolerated dose) [7]: 55 mg/kg; Maximum change in weight (%) ([8]; mouse, in vivo): −12% |
| CCC1(O)C(=O)OCc2c1cc1n(c2=O)Cc2cc3c(CC=NOC(C)(C)C)c(OC(=O)C(N)Cc4ccccc4)ccc3nc2-1 (stereo not shown) [CPT4, 9-t-butyloxyethyloxime-10-phenylalanine-carbonyloxy-camptothecin] | – | – | – | – | – | – | – | do not have significant activities in vitro | – | – | – | – | – | – |
| CCC1(O)C(=O)OCc2c1cc1n(c2=O)Cc2cc3c(CC=NOC(C)(C)C)c(OC(C)=O)ccc3nc2-1 (stereo not shown) [CPT8] | 12.9 | – | – | – | – | – | – | significant cytotoxicity | 7.1 ± 2.1 | 23.1 ± 3.1 | 11.1 ± 1.8 | 4.1 ± 1.7 | 19.3 ± 2.2 | – |
| CCc1c2c(nc3ccc(OC(=O)N4CCC(N5CCCCC5)CC4)cc13)-c1cc3c(c(=O)n1C2)COC(=O)[C@]3(O)CC [Irinotecan] | – | 6/6 | 0 | 361 ± 54 | 75.3 | 451 ± 56 | 214 ± 26 | – | – | – | – | – | – | Average survival time [10, 16]: 22.8 ± 1.4 days; Maximum change in weight (%) [5, 13]: −12%; MTD [7]: 55 mg/kg; Maximum change in weight (%) [8, 15]: −13% |
| CCC1(OC(=O)C(N)Cc2ccccc2)C(=O)OCc2c1cc1n(c2=O)Cc2cc3c(CC=NOC(C)(C)C)c(OC(=O)N4CCC(N5CCCCC5)CC4)ccc3nc2-1 (stereo not shown) [CPT9, 9-t-butyloxyethyloxime-10-[(4′-piperidinylpiperidinyl)carbonyloxy]-20-phenylalanine carbonyloxy-camptothecin] | – | – | – | – | – | – | – | do not have significant activities in vitro | – | – | – | – | – | – |
| CC[C@@]1(O)C(=O)OCc2c1cc1n(c2=O)Cc2c-1nc1ccccc1c2/C=N/OC(C)(C)C [Gimatecan] | – | 6/6 | 0 | 328 ± 65 | 68.4 | 578 ± 61 | 203 ± 33 | – | – | – | – | – | – | IC50 ([1]; Homo sapiens, read-out: Concentration to inhibit 50% cell growth, mean (average concentration), mean over U87, BX-PC3, HT-29, OV-3, A549): 2.7 nM; IC50 ([2]; Homo sapiens, BXPC-3, 48 h): 1.5 ± 0.8 nM; Average survival time [10, 16]: 23.1 ± 1.6 days; IC50 ([3]; Homo sapiens, 48 h): 3.1 ± 2.2 nM; IC50 ([4]; Homo sapiens, HT-29, 48 h): 3.6 ± 0.3 nM; Maximum change in weight (%) [5, 13]: −13%; IC50 (U87 (glioma) cells; Homo sapiens, U-87 MG, 48 h): 0.6 ± 0.2 nM; IC50 ([6]; Homo sapiens, A549, 48 h): 4.7 ± 0.2 nM; MTD [7]: 1 mg/kg; Maximum change in weight (%) [8, 15]: −12% |
| CCC1(O)C(=O)OCc2c1cc1n(c2=O)Cc2cc3c(CC=NOC(C)(C)C)cccc3nc2-1 (stereo not shown) [CPT7, 9-t-butyloxyethyloxime-camptothecin] | 3.3 | – | – | – | – | – | – | significant cytotoxicity | 2.1 ± 1.2 | 4.1 ± 0.4 | 3.1 ± 1 | 1.5 ± 0.3 | 5.5 ± 0.8 | – |
| CCC1(O)C(=O)OCc2c1cc1n(c2=O)Cc2cc3c(CC=NOC(C)(C)C)c(F)ccc3nc2-1 (stereo not shown) [CPT3, 9-t-butyloxyethyloxime-10-fluoro-camptothecin] | 7.1 | – | – | – | – | – | – | significant cytotoxicity | 3.1 ± 1.5 | 10.1 ± 2.1 | 9.1 ± 3.2 | 2.1 ± 1 | 11.2 ± 1 | – |
| 9-t-butyloxyethyloxime-10-hydroxy-camptothecin [CPT2] | 9.1 | – | – | – | – | – | – | – | 5.1 ± 2 | 16.1 ± 2.5 | 7.1 ± 1.6 | 2.9 ± 1.1 | 14.1 ± 1.2 | – |
| CCc1c2c(nc3ccc(O)cc13)-c1cc3c(c(=O)n1C2)COC(=O)[C@]3(O)CC [SN38] | 10.5 | – | – | – | – | – | – | – | 6.8 ± 2.6 | 17.1 ± 3.2 | 8.7 ± 1.2 | 3.1 ± 1.1 | 16.6 ± 1.9 | – |
